US5268308A, “Immunoassay for pyridostigmine” (priority 1989, dated 1993)
Several values for one entry are separate records, joined by “and”; a condition that tells them apart may be missing. Equal entries are not always repeated. Where two headings read alike, the source gives them in different places.

Legend:
patients = conditions: cited from earlier work
Pyridostigmine Antibody = assay: Cross-reactivity with pyridostigmine antibody in RIA (competition with labeled pyridostigmine); format: binding, rabbit (male New Zealand white); conditions: labeled pyridostigmine 5000 DPM; maximum tested 500 ng
Procedure: Antibodies to the pyridostigmine-BSA immunogen were produced by injecting male New Zealand white rabbits. Prior to injection, the immunogen was emulsified with an equal volume of complete Freund's adjuvant, purchased from Difco Laboratories. The initial immunization consisted of 0.8 mg of protein injected intracutaneously into the back of the rabbits. Booster injections containing 0.8 mg of immunogen and incomplete Freund's adjuvant were administered every one or two months for the next seven months. Blood was collected one week after each booster injection from the central ear vein. The blood was allowed to clot at room temperature and then centrifuged at 1500×g for 15 minutes. The separated serum was stored frozen at -20° C. until assayed for the presence of pyridostigmine antibody. […] FIG. 1 is the antibody dilution curve for pyridostigmine.
In the assay procedure tritiated pyridostigmine having specificity of […] was used as tracer. The dilution of tracer, antisera and pyridostigmine standards were made using 0.01 M phosphate buffer containing 150 mM sodium chloride with a pH of 7.4.. […] Both standard and sample tubes were always analyzed in duplicate. The assay was carried out according to the protocol shown in. Table 1 with the reagents were added to the assay tubes in the order shown in.
According to the protocol for the RIA of the present invention, after the addition of antisera, the contents of the tubes were mixed and incubated for 3 hours at 4° C. The antigen which bound to the antibody was separated by adding 100% saturated ammonium sulfate and centrifuging at 2500×g for 15 minutes. After aspiration of the supernatant, the precipitate was washed one time with 50% saturated ammonium sulfate; then the mixture was centrifuged and the supernatent removed. The precipitate was dissolved in 1.0 ml of distilled water, and the solution was transferred to a scintillation vial containing 10.0 ml of acquasol.
Cross-reactivity of various compounds with pyridostigmine antibody was determined in the RIA. […] Each compound was tested for cross-reactivity with the antibody. The maximum concentration of each compound tested was 500 ng.

[1] = cited from earlier work
[2] = Pyridostigmine level in rat sera after intramuscular dose, by RIA; format: in vivo; conditions: for concentration at 5 min / concentration at 10 min / concentration at 0.25 h / concentration at 0.5 h / concentration at 1 h / concentration at 2 h / concentration at 3 h / concentration at 4 h: rat, serum, im
Procedure: (§1) To further validate the RIA and the antibody specificity of the present invention, additional rat studies were conducted. Male rats were housed two per cage at 23° C. with a twelve hour on-off light cycle. The animals were given food and water ad libitum. After sixty days, food was withheld for twelve hours. Then pyridostigmine was administered (1.0 mg. of pyridostigmine bromide in physiologic saline/Kg) intramuscularly to the rats weighing between 450 and 550 grams.
(§2) Groups of three animals were sacrificed by using inhalation anesthetic, Fluothane (0.01% thymol, w/w; and 0.00025% ammonia, w/w) Ayerst Laboratories, New York, N.Y. at various times after dosing, namely at 0, 5, 10, 15, 30, 60 minutes and at 2, 3, 4 and 6 hours. Blood was collected via heart puncture, and serum was separated by centrifugation at 2000 xg for 20 minutes. Table 4 gives the pyridostigmine level in the plasma of three male rats for each time interval as determined by the RIA of the present invention.

[3] = Pyridostigmine in various rat organs after intramuscular dose, by RIA; format: in vivo; conditions: 1.0 mg/kg i.m.
Procedure: as §1, §2
The brain, fat, heart, muscle and spleen were also removed from the sacrificed rats. The organs from each time period were pooled and kept frozen at -85° C. until analyzed. In preparing tissue homogenates for analysis, tissue samples were first brought to room temperature. Next the tissue samples were washed with ice-cold saline, blotted dry, weighed and homogenized in an ice-cold solution ([…], 0.5%. Triton X, 150 mM sodium chloride, pH 7.4; 2:1, v/w) with a Biohomogenizer (from Biospect Products Inc., Bartlesville, OK), cooling the tubes with ice as needed. The suspension was centrifuged at 15,000 ×g for 30 minutes at […] The supernatant was collected, and the pellet was mixed once more (1:1, w/v) with the solution, and centrifuged as described earlier. The supernatants for like samples were combined. The RIA of the present invention was then followed to determine the amounts of pyridostigmine in the various rat organs. The results of the RIA are given in.

acetylcholinesterase = conditions: cited from earlier work

CN(C)C(=O)Oc1ccc[n+](C)c1 [Pyridostigmine]
side effect on intravenous administration (patients; administered intraveneously): thrombophlebitis
adverse muscarinic effects (patients; certain patients): nausea, vomitin , diarrhea, miosis, excessive salivation and sweating, abdomimal cramps, bradycardia, bronchial secretion and bronchospasm
toxicity relative to therapeutic levels (patients; clinical use): toxic at levels very close to those which produce therapeutic results
other side effects (patients; human, in vivo): generalized weakness, muscle cramps, fasciculation, hypotension
effect of substantial over administration (patients; overdose): cholinergic crisis leading to death
IC 50 (50% inhibition of binding of 3H-pyridostigmine to the antibody) (Pyridostigmine Antibody): 4 ng
stability ([1]; alkaline solutions): unstable in alkaline solutions
solubility ([1]; water and alcohol): freely soluble in water and alcohol
Pyridostigmine in the Rat Sera, Mean ± S.D. ([2]; 0 min, 1.0 mg/kg pyridostigmine bromide i.m., male rats): 0 ng/mL
Pyridostigmine in the Rat Sera, individual animals ([2]; 0 min, 1.0 mg/kg pyridostigmine bromide i.m., male rats #1, #2, #3 in order): 0 ng/mL
Pyridostigmine in the Rat Sera, individual animals ([2]; 5 min, 1.0 mg/kg i.m., male rats #1, #2 in order, 1 mg/kg): 550 ng/mL
Pyridostigmine in the Rat Sera, individual animals ([2]; 10 min, 1.0 mg/kg i.m., male rats #1, #2 in order, 1 mg/kg): 470 ng/mL
Pyridostigmine in the Rat Sera, individual animals ([2]; 15 min, 1.0 mg/kg i.m., male rats #1, #2, #3 in order, 1 mg/kg): 300 ng/mL
Pyridostigmine in the Rat Sera, individual animals ([2]; 30 min, 1.0 mg/kg i.m., male rats #1, #2, #3 in order, 1 mg/kg): 220 ng/mL
Pyridostigmine in the Rat Sera, individual animals ([2]; 60 min, 1.0 mg/kg i.m., male rats #1, #2, #3 in order, 1 mg/kg): 110 ng/mL
Pyridostigmine in the Rat Sera, individual animals ([2]; 2 hr, 1.0 mg/kg i.m., male rats #1, #2, #3 in order, 1 mg/kg, 120 min): 25 ng/mL and 15 ng/mL
Pyridostigmine in the Rat Sera, individual animals ([2]; 3 hr, 1.0 mg/kg i.m., male rats #1, #2 in order, 1 mg/kg, 180 min): 14 ng/mL
Pyridostigmine in the Rat Sera, individual animals ([2]; 4 hr, 1.0 mg/kg i.m., male rats #1, #2, #3 in order, 1 mg/kg, 240 min): 5 ng/mL and 6.5 ng/mL
concentration at 5 min ([2]; 1 mg/kg, 5 min, 1.0 mg/kg i.m., male rats #1, #2 in order, read-out: Pyridostigmine in the Rat Sera, individual animals): 0.6 µg/mL
concentration at 5 min ([2]; 1 mg/kg, 5 min, 1.0 mg/kg i.m., male rats, read-out: Pyridostigmine in the Rat Sera, Mean ± S.D.): 0.575 ± 0.0354 µg/mL
concentration at 10 min ([2]; 1 mg/kg, 10 min, 1.0 mg/kg i.m., male rats #1, #2 in order, read-out: Pyridostigmine in the Rat Sera, individual animals): 0.45 µg/mL
concentration at 10 min ([2]; 1 mg/kg, 10 min, 1.0 mg/kg i.m., male rats, read-out: Pyridostigmine in the Rat Sera, Mean ± S.D.): 0.46 ± 0.0141 µg/mL
concentration at 0.25 h ([2]; 1 mg/kg, 15 min, 1.0 mg/kg i.m., male rats #1, #2, #3 in order, read-out: Pyridostigmine in the Rat Sera, individual animals): 0.4 µg/mL
concentration at 0.25 h ([2]; 1 mg/kg, 15 min, 1.0 mg/kg i.m., male rats, read-out: Pyridostigmine in the Rat Sera, Mean ± S.D.): 0.387 ± 0.0808 µg/mL
concentration at 0.5 h ([2]; 1 mg/kg, 30 min, 1.0 mg/kg i.m., male rats #1, #2, #3 in order, read-out: Pyridostigmine in the Rat Sera, individual animals): 0.25 µg/mL
concentration at 0.5 h ([2]; 1 mg/kg, 30 min, 1.0 mg/kg i.m., male rats, read-out: Pyridostigmine in the Rat Sera, Mean ± S.D.): 0.29 ± 0.0964 µg/mL
concentration at 1 h ([2]; 1 mg/kg, 60 min, 1.0 mg/kg i.m., male rats #1, #2, #3 in order, read-out: Pyridostigmine in the Rat Sera, individual animals): 0.14 µg/mL
concentration at 1 h ([2]; 1 mg/kg, 60 min, 1.0 mg/kg i.m., male rats, read-out: Pyridostigmine in the Rat Sera, Mean ± S.D.): 0.13 ± 0.0173 µg/mL
concentration at 2 h ([2]; 1 mg/kg, 2 hr, 1.0 mg/kg i.m., male rats #1, #2, #3 in order, read-out: Pyridostigmine in the Rat Sera, individual animals): 0.024 µg/mL
concentration at 2 h ([2]; 1 mg/kg, 2 hr, 1.0 mg/kg i.m., male rats, read-out: Pyridostigmine in the Rat Sera, Mean ± S.D.): 0.021 ± 0.00551 µg/mL
concentration at 3 h ([2]; 1 mg/kg, 3 hr, 1.0 mg/kg i.m., male rats #1, #2 in order, read-out: Pyridostigmine in the Rat Sera, individual animals): 0.012 µg/mL
concentration at 3 h ([2]; 1 mg/kg, 3 hr, 1.0 mg/kg i.m., male rats, read-out: Pyridostigmine in the Rat Sera, Mean ± S.D.): 0.013 ± 0.00141 µg/mL
concentration at 4 h ([2]; 1 mg/kg, 4 hr, 1.0 mg/kg i.m., male rats #1, #2, #3 in order, read-out: Pyridostigmine in the Rat Sera, individual animals): 0.0075 µg/mL
concentration at 4 h ([2]; 1 mg/kg, 4 hr, 1.0 mg/kg i.m., male rats, read-out: Pyridostigmine in the Rat Sera, Mean ± S.D.): 0.006 ± 0.00126 µg/mL
Pyridostigmine in rat organs ([3]; Brain, 1 HR): 5.06 ng/mg protein
Pyridostigmine in rat organs ([3]; Brain, 2 HR): 4.63 ng/mg protein
Pyridostigmine in rat organs ([3]; Brain, 3 HR): 3.92 ng/mg protein
Pyridostigmine in rat organs ([3]; Brain, 4 HR): 3.55 ng/mg protein
Pyridostigmine in rat organs ([3]; Brain, 6 HR): 2.62 ng/mg protein
Pyridostigmine in rat organs ([3]; Brain, 5 min): 3.63 ng/mg protein
Pyridostigmine in rat organs ([3]; Brain, 10 min): 7.65 ng/mg protein
Pyridostigmine in rat organs ([3]; Brain, 15 min): 6.32 ng/mg protein
Pyridostigmine in rat organs ([3]; Brain, 30 min): 6.11 ng/mg protein
Pyridostigmine in rat organs ([3]; Fat, 1 HR): 8.69 ng/mg protein
Pyridostigmine in rat organs ([3]; Fat, 2 HR): 6.46 ng/mg protein
Pyridostigmine in rat organs ([3]; Fat, 3 HR): 5.73 ng/mg protein
Pyridostigmine in rat organs ([3]; Fat, 4 HR): 3.26 ng/mg protein
Pyridostigmine in rat organs ([3]; Fat, 6 HR): 2.91 ng/mg protein
Pyridostigmine in rat organs ([3]; Fat, 5 min): 5.98 ng/mg protein
Pyridostigmine in rat organs ([3]; Fat, 10 min): 8.11 ng/mg protein
Pyridostigmine in rat organs ([3]; Fat, 15 min): 15.37 ng/mg protein
Pyridostigmine in rat organs ([3]; Fat, 30 min): 9.05 ng/mg protein
Pyridostigmine in rat organs ([3]; Heart, 1 HR): 78.29 ng/mg protein
Pyridostigmine in rat organs ([3]; Heart, 2 HR): 52.4 ng/mg protein
Pyridostigmine in rat organs ([3]; Heart, 3 HR): 48.57 ng/mg protein
Pyridostigmine in rat organs ([3]; Heart, 4 HR): 23.11 ng/mg protein
Pyridostigmine in rat organs ([3]; Heart, 6 HR): 8.52 ng/mg protein
Pyridostigmine in rat organs ([3]; Heart, 5 min): 43.78 ng/mg protein
Pyridostigmine in rat organs ([3]; Heart, 10 min): 57.5 ng/mg protein
Pyridostigmine in rat organs ([3]; Heart, 15 min): 70.4 ng/mg protein
Pyridostigmine in rat organs ([3]; Heart, 30 min): 75.96 ng/mg protein
Pyridostigmine in rat organs ([3]; Muscle, 1 HR): 9.46 ng/mg protein
Pyridostigmine in rat organs ([3]; Muscle, 2 HR): 4.99 ng/mg protein
Pyridostigmine in rat organs ([3]; Muscle, 3 HR): 4.8 ng/mg protein
Pyridostigmine in rat organs ([3]; Muscle, 4 HR): 3.94 ng/mg protein
Pyridostigmine in rat organs ([3]; Muscle, 6 HR): 3.08 ng/mg protein
Pyridostigmine in rat organs ([3]; Muscle, 5 min): 9.63 ng/mg protein
Pyridostigmine in rat organs ([3]; Muscle, 10 min): 13.57 ng/mg protein
Pyridostigmine in rat organs ([3]; Muscle, 15 min): 11.67 ng/mg protein
Pyridostigmine in rat organs ([3]; Muscle, 30 min): 10.08 ng/mg protein
Pyridostigmine in rat organs ([3]; Spleen, 1 HR): 2.48 ng/mg protein
Pyridostigmine in rat organs ([3]; Spleen, 2 HR): 2.40 ng/mg protein
Pyridostigmine in rat organs ([3]; Spleen, 3 HR): 2.03 ng/mg protein
Pyridostigmine in rat organs ([3]; Spleen, 4 HR): 1.92 ng/mg protein
Pyridostigmine in rat organs ([3]; Spleen, 6 HR): 1.86 ng/mg protein
Pyridostigmine in rat organs ([3]; Spleen, 5 min): 10.35 ng/mg protein
Pyridostigmine in rat organs ([3]; Spleen, 10 min): 6.26 ng/mg protein
Pyridostigmine in rat organs ([3]; Spleen, 15 min): 6.15 ng/mg protein
Pyridostigmine in rat organs ([3]; Spleen, 30 min): 4.44 ng/mg protein
cholinesterase inhibition (acetylcholinesterase): reversible cholinesterase inhibitor
